{"source": "patent US12371666B2", "about": "“Nucleoside modified mRNA and uses thereof” (BOSTON MEDICAL CENTER CORPORATION, priority 2021, dated 2025)", "key": {"[1]": {"test_system": "centrilobular necrosis", "experiment": "APAP-NSG liver injury model dose test", "details": "NSG mice, 24 h after injection"}, "[2]": {"test_system": "APAP-induced liver injury", "experiment": "Acetaminophen-induced liver injury in male and female C57BL/6J mice", "experimental": "Images from stained sections were visualized and measured at 40× magnification on ImageJ™ (FIJI) using the area measurement tool. 2-3 lobes were measured and averaged per mouse."}, "[3]": {"experiment": "b-estradiol treatment of males in APAP liver injury, serum ALT", "type": "in vivo, mouse", "details": "IP 0.5 mg/kg in corn oil, 24 hours following APAP injection"}, "[4]": {"test_system": "APAP-induced liver injury", "type": "in vivo", "details": "for survival: GH 2.5 mg/kg or NAC 1000 mg/kg 8 hours post-APAP", "procedure": "Acetaminophen-induced liver injury mouse model.\nGH and NAC were both diluted in sterile PBS. GH was diluted to a concentration of 1 mg/mL and given at dosage indicated, subcutaneously with a 0.5 mL insulin syringe. NAC was diluted to a concentration of 50 mg/mL and given at 1000 mg/kg dosage, intraperitoneally with a 1 mL insulin syringe.\nThe statistical analyses for the graphs were carried out using two-sided student's t test for unpaired comparisons with GraphPad Prism™. The statistical analyses for the Kaplan-Meier survival curves were carried out using the Log-rank Mantel-Cox test with GraphPad Prism. A p value<0.05 was considered significant, ***<0.0001, **<0.001, *<0.05, n.s. or no result=not significant."}, "[5]": {"details": "intravenous NAC; cited from earlier work"}, "[6]": {"test_system": "BEC-driven liver regeneration", "experiment": "BEC-driven liver regeneration in zebrafish hepatocyte ablation model Tg(fabp10a:CFP-NTR) with Mtz", "type": "in vivo", "procedure": "Experiments on zebrafish: All zebrafish experiments were performed under the approval of the IACUC at the University of Pittsburgh. Embryos and adult fish were raised and maintained under standard laboratory conditions. The following transgenic lines were used: Tg(fabp10a:CFP-NTR)s931, Tg(Tp1:H2B-mCherry)s939, Tg(hs:sflt1)bns80, Tg(Tp1:CreERT2)s959, and Tg(hs:loxP-mCherry-loxP-hVEGFA)mn32.\nHepatocyte ablation using the Tg(fabp10a:CFP-NTR) line: Hepatocyte ablation was performed by treating Tg(fabp10a:CFP-NTR) larvae with 10 mM Mtz in egg water supplemented with 0.2% DMSO and 0.2 mM 1-phenyl-2-thiourea from 3.5 to 5 dpf for 36 hours, as previously described^9.\nSU5416 treatment: SU5416 (MedChemExpress, Monmouth Junction, NJ) was used at 1.5 μM.\nHeat-shock conditions for zebrafish larvae: Both Tg(hs:sflt1) and Tg(hs:loxP-mCherry-loxP-hVEGFA) larvae were heat-shocked by transferring them into egg water pre-warmed to 38.5° C. and keeping them at this temperature for 20 minutes, as previously described^10.\nWhole-mount in situ hybridization and immunostaining in zebrafish: Whole-mount in situ hybridization was performed, as previously described^11, with gc^12 and f5 probes. […]\nQuantification of Bhmt+ cell number and Bhmt+ area in the zebrafish liver: For the quantification of Bhmt+ cell number, confocal projection images consisting of 6 optical-section images, with 3-μm interval, were used. Bhmt+ and Tp1:H2B-mCherry+ cells were manually counted; the number of Bhmt/Tp:H2B-mCherry double-positive cells was divided by the number of Tp1:H2B-mCherry+ cells. For the quantification of Bhmt+ liver area, confocal projection images showing Bhmt and fabp10a:CFP-NTR expression were used. Both Bhmt^+ and fabp10a:CFP-NTR+ areas in the liver were calculated by ImageJ and the former area was divided by the latter.\nImage acquisition, processing, and statistical analysis of zebrafish data: Zeiss LSM700 confocal and Leica MZ16 microscopes were used to obtain image data. Confocal stacks were analyzed using the Zen 2009 software. […] Quantitative data were shown as mean±standard error of the mean (SEM)."}, "[7]": {"test_system": "Tg(fabp10a:CFP-NTR) larvae", "experiment": "Zebrafish NTR/Mtz hepatocyte ablation model of BEC-driven liver regeneration", "details": "for size of regenerating livers: 2 μM, treatment from A0h to R24h", "from_the_text": "a. […] In the Tg(fabp10a:CFP-NTR)^5931 zebrafish line, bacterial nitroreductase (NTR) is expressed under the hepatocyte-specific fabp10a promoter^2. Since the NTR enzyme converts the non-toxic prodrug, metronidazole (Mtz), into a cytotoxic drug^59, 60 treating the transgenic zebrafish with Mtz specifically ablates hepatocytes. In this model, upon severe hepatocyte loss, BECs first dedifferentiate into LPCs, then re-differentiate into either hepatocytes or BECs, thereby leading to full liver recovery^2.\nb. […] Upon targeted chemical screening using the NTR/Mtz model^61, the inventors examined the effect of VEGFR2 inhibition on BEC-driven liver regeneration. The inventors used the Notch reporter line Tg(Tp1:H2B-mCherry)^939 that expresses H2B-mCherry fusion proteins in BECs.\nc. […] Given that VEGFR2 functions via at least two major signaling branches, PI3K/AKT and MEK/ERK1/2, the inventors tested which downstream branch controls BEC-driven liver regeneration using their specific inhibitors (LY294002 for PI3K and U0126 for MEK1/2). […] Given the well-known cascade of PI3K-AKT-mTOR, the inventors further examined mTOR activity in the regenerating livers."}, "[8]": {"test_system": "BEC-driven liver regeneration", "details": "earlier chemical screen of the inventors; cited from earlier work"}, "[9]": {"test_system": "liver sex-biased genes", "details": "rat GH 25 ng/g BW/hr by minipump, male mice; cited from earlier work"}}, "note": "Where two headings read alike, the source gives them in different places.", "data": [{"molecule": "CC(=O)Nc1ccc(O)cc1", "note": "[APAP, acetyl-para-aminophenol]", "values": [{"measurement": "liver damage", "setting": "[1]; 200 mg/Kg", "value": "mild"}, {"measurement": "liver damage", "setting": "[1]; 400 mg/kg", "value": "severe damage and ultimately death"}, {"measurement": "necrosis (H&E), males vs females", "setting": "[2]; 400 mg/kg", "value": "more extensive in male livers and progressively increased overtime, whereas female livers fully recovered by 48 hours"}, {"measurement": "serum bilirubin, males vs females", "setting": "[2]; 400 mg/kg", "value": "persisted for 96 hours in males but decreased after 48 hours in females"}, {"measurement": "injury and lethality", "setting": "[2]; 400 mg/kg intraperitoneally, both sexes", "value": "induces injury in both sexes without lethality up to 96 hours"}, {"measurement": "serum ALT levels, males vs females", "setting": "[2]; 400 mg/kg, time points post-24 hours", "value": "consistently higher in males than in females"}]}, {"molecule": "C[C@]12CC[C@@H]3c4ccc(O)cc4CC[C@H]3[C@@H]1CC[C@@H]2O", "note": "[b-estradiol]", "values": [{"measurement": "ALT levels", "setting": "[3]", "value": "significantly decreased ALT levels"}]}, {"molecule": "CC(=O)N[C@@H](CS)C(=O)O", "note": "[NAC, N-acetyl cysteine]", "values": [{"measurement": "survival", "setting": "[4]; females", "value": "all females survived regardless of the treatment"}, {"measurement": "necrotic tissue", "setting": "[4]; females, NAC 1000 mg/kg", "value": "did not show the beneficial effect of reducing necrotic tissue"}, {"measurement": "necrotic areas", "setting": "[4]; males that survived 24 hours post-APAP, NAC 1000 mg/kg", "value": "significantly diminished"}, {"measurement": "apoptotic TUNEL+ area", "setting": "[4]; males, 24 hours post-APAP", "value": "significantly diminished"}, {"measurement": "survival", "setting": "[4]; males, 48 hours post-APAP", "value": "all NAC-treated males died by 48 hours post-APAP"}, {"measurement": "patients with anaphylactoid reaction", "setting": "[5]", "value": "up to 18%"}]}, {"molecule": "Cc1cc(C)c(/C=C2\\C(=O)Nc3ccccc32)[nH]1", "note": "[SU5416]", "values": [{"measurement": "LPC-to-hepatocyte differentiation defect by gc and f5 expression", "setting": "[6]; R24h", "value": "This defect was confirmed"}, {"measurement": "expression of the hepatocyte marker Bhmt", "setting": "[6]; R24h, SU5416 from A18h to R24h", "value": "greatly suppressed the expression of the hepatocyte marker Bhmt"}, {"measurement": "size of regenerating livers", "setting": "[6]; SU5416 1.5 μM from A18h to R24h", "value": "significantly reduced the size of regenerating livers"}, {"measurement": "size of regenerating livers", "setting": "[7]", "value": "significantly reduced the size of regenerating livers"}, {"measurement": "expression of Prox1 and Hnf4a in LPCs", "setting": "[7]; R6h", "value": "normal expression of Prox1 and Hnf4a"}, {"measurement": "pS6 expression in LPCs (mTORC1 activation)", "setting": "[7]; R6h regenerating livers", "value": "absent"}, {"measurement": "expression of fabp10a:CFP-NTR", "setting": "[7]; R24h", "value": "very weak expression"}, {"measurement": "expression of the hepatocyte marker Bhmt", "setting": "[7]; R24h", "value": "almost no expression"}, {"measurement": "induction of early hepatocyte markers Prox1 and HNF4α in BEC-derived LPCs", "setting": "[8]", "value": "did not affect"}, {"measurement": "size of regenerating livers", "setting": "[8]", "value": "significantly reduced the size of regenerating livers"}]}, {"molecule": "CN(C)c1ccc(/C=C2\\C(=O)Nc3ccccc32)cc1", "note": "[SU4312]", "values": [{"measurement": "size of regenerating livers", "setting": "[7]", "value": "significantly reduced the size of regenerating livers"}, {"measurement": "induction of early hepatocyte markers Prox1 and HNF4α in BEC-derived LPCs", "setting": "[8]", "value": "did not affect"}, {"measurement": "size of regenerating livers", "setting": "[8]", "value": "significantly reduced the size of regenerating livers"}]}, {"molecule": "cGH: rat recombinant GH given by continuous infusion via osmotic minipump (protein, UniProt P01244 27-216, looked up) Somatotropin: FPAMPLSSLFANAVLRAQHLHQLAADTYKEFERAYIPEGQRYSIQNAQAAFCFSETIPAPTGKEEAQQRTDMELLRFSLLLIQSWLGPVQFLSRIFTNSLMFGTSDRVYEKLKDLEEGIQALMQELEDGSPRIGQILKQTYDKFDANMRSDDALLKNYGLLSCFKKDLHKAETYLRVMKCRRFAESSCAF", "values": [{"measurement": "liver sex-biased genes whose expression is feminized", "setting": "[9]", "value": 92, "unit": "%"}]}]}
